In patent US10131652B2, “Pyrimidinyloxy benzene derivatives as herbicides” (E. I. DU PONT DE NEMOURS AND COMPANY, priority 2014, dated 2018):

What was measured:
Experiment in all cases: Test F pre-/postemergence plant response
Type in all cases: in vivo
Details in all cases: scale 0 to 100
[1] = test system: yellow nutsedge (Cyperus esculentus)
Summary of the method: (§1)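 Visual control ratings were scored 0 (no effect) to 100 (complete control) versus untreated plants after 14–21 greenhouse days. Compounds, formulated in a surfactant-containing non-phytotoxic solvent, were applied both to silt loam at planting (preemergence) and to 1- to 4-leaf plants 2–18 cm tall (postemergence).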

[2] = test system: hairy beggarticks (Bidens pilosa)
Summary of the method: as §1

[3] = test system: Italian ryegrass (Lolium multiflorum)
Summary of the method: as §1

[4] = test system: velvetleaf (Abutilon theophrasti)
Summary of the method: as §1

kochia (Kochia scoparia) = test system: kochia (Kochia scoparia)
Summary of the method: as §1

[5] = test system: lambsquarters (Chenopodium album)
Summary of the method: as §1

[6] = test system: nightshade (eastern black nightshade, Solanum ptycanthum)
Summary of the method: as §1

[7] = test system: goosegrass (Eleusine indica)
Summary of the method: as §1

[8] = test system: field bindweed (Convolvulus arvensis)
Summary of the method: as §1

FC(F)c1cc(-c2c(Cl)cccc2Oc2ncc(Cl)cn2)no1 [Compound 179]
Plant response rating, Nutsedge, Yellow ([1]; 16 g ai/ha Preemergence): 0
Plant response rating, Nutsedge, Yellow ([1]; 31 g ai/ha Preemergence): 0
Plant response rating, Nutsedge, Yellow ([1]; 125 g ai/ha Preemergence): 0
Plant response rating, Nutsedge, Yellow ([1]; Preemergence): 0
Plant response rating, Beggarticks ([2]; 16 g ai/ha Postemergence): 20
Plant response rating, Beggarticks ([2]; 16 g ai/ha Preemergence): 0
Plant response rating, Beggarticks ([2]; 31 g ai/ha Postemergence): 50
Plant response rating, Beggarticks ([2]; 31 g ai/ha Preemergence): 0
Plant response rating, Beggarticks ([2]; 62 g ai/ha Postemergence): 40
Plant response rating, Beggarticks ([2]; 62 g ai/ha Preemergence): 0
Plant response rating, Beggarticks ([2]; 125 g ai/ha Postemergence): 50
Plant response rating, Beggarticks ([2]; 125 g ai/ha Preemergence): 0
Plant response rating, Ryegrass, Italian ([3]; 16 g ai/ha Postemergence): 0
Plant response rating, Ryegrass, Italian ([3]; 16 g ai/ha Preemergence): 0
Plant response rating, Ryegrass, Italian ([3]; 31 g ai/ha Postemergence): 0
Plant response rating, Ryegrass, Italian ([3]; 31 g ai/ha Preemergence): 0
Plant response rating, Ryegrass, Italian ([3]; 62 g ai/ha Postemergence): 0
Plant response rating, Ryegrass, Italian ([3]; 125 g ai/ha Postemergence): 0
Plant response rating, Ryegrass, Italian ([3]; 125 g ai/ha Preemergence): 10
Plant response rating, Ryegrass, Italian ([3]; Preemergence): 0
Plant response rating, Velvetleaf ([4]; 16 g ai/ha Preemergence): 15
Plant response rating, Velvetleaf ([4]; 31 g ai/ha Preemergence): 65
Plant response rating, Velvetleaf ([4]; 125 g ai/ha Preemergence): 100
Plant response rating, Velvetleaf ([4]; Preemergence): 90
Plant response rating, Kochia (kochia (Kochia scoparia); 16 g ai/ha Postemergence): 65
Plant response rating, Kochia (kochia (Kochia scoparia); 16 g ai/ha Preemergence): 0
Plant response rating, Kochia (kochia (Kochia scoparia); 31 g ai/ha Postemergence): 75
Plant response rating, Kochia (kochia (Kochia scoparia); 31 g ai/ha Preemergence): 0
Plant response rating, Kochia (kochia (Kochia scoparia); 62 g ai/ha Postemergence): 90
Plant response rating, Kochia (kochia (Kochia scoparia); 125 g ai/ha Postemergence): 95
Plant response rating, Kochia (kochia (Kochia scoparia); 125 g ai/ha Preemergence): 98
Plant response rating, Kochia (kochia (Kochia scoparia); Preemergence): 70
Plant response rating, Lambsquarters ([5]; 16 g ai/ha Preemergence): 98
Plant response rating, Lambsquarters ([5]; 31 g ai/ha Preemergence): 100
Plant response rating, Lambsquarters ([5]; 125 g ai/ha Preemergence): 100
Plant response rating, Lambsquarters ([5]; Preemergence): 100
Plant response rating, Nightshade ([6]; 31 g ai/ha Preemergence): 65
Plant response rating, Nightshade ([6]; 125 g ai/ha Preemergence): 100
Plant response rating, Nightshade ([6]; Preemergence): 100
Plant response rating, Goosegrass ([7]; 16 g ai/ha Preemergence): 0
Plant response rating, Goosegrass ([7]; 31 g ai/ha Preemergence): 0
Plant response rating, Goosegrass ([7]; 125 g ai/ha Preemergence): 0
Plant response rating, Goosegrass ([7]; Preemergence): 0
Plant response rating, Field Bindweed ([8]; 16 g ai/ha Postemergence): 15
Plant response rating, Field Bindweed ([8]; 16 g ai/ha Preemergence): 0
Plant response rating, Field Bindweed ([8]; 31 g ai/ha Postemergence): 25
Plant response rating, Field Bindweed ([8]; 31 g ai/ha Preemergence): 0
Plant response rating, Field Bindweed ([8]; 62 g ai/ha Postemergence): 35
Plant response rating, Field Bindweed ([8]; 62 g ai/ha Preemergence): 0
Plant response rating, Field Bindweed ([8]; 125 g ai/ha Postemergence): 50
Plant response rating, Field Bindweed ([8]; 125 g ai/ha Preemergence): 0

Fc1ccc(Oc2ncc(Cl)cn2)c(-c2cc(C(F)(Cl)Cl)on2)c1 [Compound 221]
Plant response rating, Beggarticks ([2]; 16 g ai/ha Postemergence): 50
Plant response rating, Beggarticks ([2]; 31 g ai/ha Postemergence): 60
Plant response rating, Beggarticks ([2]; 62 g ai/ha Postemergence): 70
Plant response rating, Beggarticks ([2]; 125 g ai/ha Postemergence): 70
Plant response rating, Ryegrass, Italian ([3]; 16 g ai/ha Postemergence): 0
Plant response rating, Ryegrass, Italian ([3]; 31 g ai/ha Postemergence): 0
Plant response rating, Ryegrass, Italian ([3]; 62 g ai/ha Postemergence): 0
Plant response rating, Ryegrass, Italian ([3]; 125 g ai/ha Postemergence): 5
Plant response rating, Kochia (kochia (Kochia scoparia); 16 g ai/ha Postemergence): 95
Plant response rating, Kochia (kochia (Kochia scoparia); 31 g ai/ha Postemergence): 98
Plant response rating, Kochia (kochia (Kochia scoparia); 62 g ai/ha Postemergence): 100
Plant response rating, Kochia (kochia (Kochia scoparia); 125 g ai/ha Postemergence): 100
Plant response rating, Field Bindweed ([8]; 16 g ai/ha Postemergence): 70
Plant response rating, Field Bindweed ([8]; 31 g ai/ha Postemergence): 75
Plant response rating, Field Bindweed ([8]; 125 g ai/ha Postemergence): 80

FC(F)c1cc(-c2ccccc2Oc2ncc(Br)cn2)on1 [Compound 212]
Plant response rating, Beggarticks ([2]; 16 g ai/ha Postemergence): 25
Plant response rating, Beggarticks ([2]; 31 g ai/ha Postemergence): 40
Plant response rating, Beggarticks ([2]; 62 g ai/ha Postemergence): 40
Plant response rating, Beggarticks ([2]; 125 g ai/ha Postemergence): 40
Plant response rating, Ryegrass, Italian ([3]; 16 g ai/ha Postemergence): 0
Plant response rating, Ryegrass, Italian ([3]; 31 g ai/ha Postemergence): 0
Plant response rating, Ryegrass, Italian ([3]; 62 g ai/ha Postemergence): 0
Plant response rating, Ryegrass, Italian ([3]; 125 g ai/ha Postemergence): 0
Plant response rating, Kochia (kochia (Kochia scoparia); 16 g ai/ha Postemergence): 50
Plant response rating, Kochia (kochia (Kochia scoparia); 31 g ai/ha Postemergence): 90
Plant response rating, Kochia (kochia (Kochia scoparia); 62 g ai/ha Postemergence): 100
Plant response rating, Kochia (kochia (Kochia scoparia); 125 g ai/ha Postemergence): 100
Plant response rating, Field Bindweed ([8]; 16 g ai/ha Postemergence): 30
Plant response rating, Field Bindweed ([8]; 31 g ai/ha Postemergence): 40
Plant response rating, Field Bindweed ([8]; 62 g ai/ha Postemergence): 60
Plant response rating, Field Bindweed ([8]; 125 g ai/ha Postemergence): 70
